In US9089603B2, “Fluorescent imaging with substituted cyanine dyes” (LI-COR, INC., priority 2010, dated 2015):

Assays:
[1] = Absorption wavelength of the cyanine dyes in methanol (halo substitution effect); type: physicochemical
Source text: [table] Design Principle: We analyzed the properties of a dye scaffold and related compounds and the corresponding substitution effects on the excitation and emission wavelengths. The small size of fluorine is unlikely to produce steric effects, therefore, we explored the electronic effects of fluorine and related substitutions. The Hammett equation (σ-value) is an important tool to understand the electronic effects of the substituents, therefore, we explored the correlation of the wavelength (λMeOH) and the σ-value (vide infra): […]

[2] = In vivo clearance imaging in nude mice (Pearl Impulse); settings: 1 nmole; for Total (signal): 800 channel
Procedure: Two nude mice were injected with 1 nmole of either compound 16 or IRDye 800CW carboxylate. They were then imaged longitudinally over the next 24 h with the Pearl Impulse imaging system. The results are presented in FIG. 9: in vivo clearance in nudes (FIG. 9A), whole body dorsal views (FIG. 9B), and the rate of clearance (FIG. 9C). The clearance data is presented below in Table 4.

Row | Compound | λMeOH ([1]; Table 5) [nm] | λMeOH ([1]; Table 2) [nm] | other results
1 | CC1(C)C(/C=C/C2=C(c3ccccc3F)C(=C/C=C3/N(CCCCS(=O)(=O)[O-])c4ccc(S(=O)(=O)[O-])cc4C3(C)C)/CCC2)=[N+](CCCCCC(=O)O)c2ccc(S(=O)(=O)[O-])cc21.[Na+].[Na+] | 772 |  | 
2 | CC1(C)C(/C=C/C2=C(c3c(F)cccc3F)C(=C/C=C3/N(CCCCS(=O)(=O)[O-])c4ccc(S(=O)(=O)[O-])cc4C3(C)C)/CCC2)=[N+](CCCCCC(=O)O)c2ccc(S(=O)(=O)[O-])cc21.[Na+].[Na+] | 782 |  | 
3 | CC1(C)C(/C=C/C2=C(c3c(F)cc(F)cc3F)C(=C/C=C3/N(CCCCS(=O)(=O)[O-])c4ccc(S(=O)(=O)[O-])cc4C3(C)C)/CCC2)=[N+](CCCCCC(=O)O)c2ccc(S(=O)(=O)[O-])cc21.[Na+].[Na+] | 785 |  | 
4 | CCCCOc1c(F)cc(F)c(C2=C(/C=C/C3=[N+](CCCCCC(=O)O)c4ccc(S(=O)(=O)[O-])cc4C3(C)C)CCC/C2=C\C=C2\N(CCCCS(=O)(=O)[O-])c3ccc(S(=O)(=O)[O-])cc3C2(C)C)c1F.[Na+].[Na+] | 789 |  | 
5 | CC1(C)C(/C=C/C2=C(c3c(F)cc(C(=O)O)cc3F)C(=C/C=C3/N(CCCCS(=O)(=O)[O-])c4ccc(S(=O)(=O)[O-])cc4C3(C)C)/CCC2)=[N+](CCCCCC(=O)O)c2ccc(S(=O)(=O)[O-])cc21.[Na+].[Na+] | 782 |  | 
6 | CC1(C)C(/C=C/C2=C(c3c(Cl)cccc3Cl)C(=C/C=C3/N(CCCCS(=O)(=O)[O-])c4ccc(S(=O)(=O)[O-])cc4C3(C)C)/CCC2)=[N+](CCCCCC(=O)O)c2ccc(S(=O)(=O)[O-])cc21.[Na+].[Na+] | 782 |  | 
7 | COc1cc(F)c(C2=C(/C=C/C3=[N+](CCCCCC(=O)O)c4ccc(S(=O)(=O)[O-])cc4C3(C)C)CCC/C2=C\C=C2\N(CCCCS(=O)(=O)[O-])c3ccc(S(=O)(=O)[O-])cc3C2(C)C)c(F)c1.[Na+].[Na+] | 772 |  | 
8 | CCCCOc1ccc(F)c(C2=C(/C=C/C3=[N+](CCCCCC(=O)O)c4ccc(S(=O)(=O)[O-])cc4C3(C)C)CCC/C2=C\C=C2\N(CCCCS(=O)(=O)[O-])c3ccc(S(=O)(=O)[O-])cc3C2(C)C)c1F.[Na+].[Na+] | 779 |  | 
9 | CCCCOc1c(F)c(F)c(C2=C(/C=C/C3=[N+](CCCCCC(=O)O)c4ccc(S(=O)(=O)[O-])cc4C3(C)C)CCC/C2=C\C=C2\N(CCCCS(=O)(=O)[O-])c3ccc(S(=O)(=O)[O-])cc3C2(C)C)c(F)c1F.[Na+].[Na+] | 790 |  | 
10 | CC1(C)C(/C=C/C2=C(c3cccc(CCCCC(=O)O)c3)C(=C/C=C3/N(CCCCS(=O)(=O)[O-])c4ccc(S(=O)(=O)[O-])cc4C3(C)C)/CCC2)=[N+](CCCCS(=O)(=O)[O-])c2ccc(S(=O)(=O)[O-])cc21.[Na+].[Na+].[Na+] [Compound 11] |  | 766 | 
11 | CC1(C)C(/C=C/C2=C(c3ccccc3F)C(=C/C=C3/N(CCCCS(=O)(=O)[O-])c4ccc(S(=O)(=O)[O-])cc4C3(C)C)/CCC2)=[N+](CCCCS(=O)(=O)[O-])c2ccc(S(=O)(=O)[O-])cc21.[Na+].[Na+].[Na+] [Compound 12] |  | 772 | 
12 | CC1(C)C(/C=C/C2=C(c3c(F)cccc3F)C(=C/C=C3/N(CCCCS(=O)(=O)[O-])c4ccc(S(=O)(=O)[O-])cc4C3(C)C)/CCC2)=[N+](CCCCS(=O)(=O)[O-])c2ccc(S(=O)(=O)[O-])cc21.[Na+].[Na+].[Na+] [Compound 13] |  | 782 | 
13 | CCCCOc1c(F)c(F)c(C2=C(/C=C/C3=[N+](CCCCS(=O)(=O)[O-])c4ccc(S(=O)(=O)[O-])cc4C3(C)C)CCC/C2=C\C=C2\N(CCCCS(=O)(=O)[O-])c3ccc(S(=O)(=O)[O-])cc3C2(C)C)c(F)c1F.[Na+].[Na+].[Na+] [Compound 24] |  | 790 | 
14 | IRDye 800CW carboxylate [reference compound] |  |  | Total (signal) ([2]; 3 Min): 114295.49; Total (signal) ([2]; 19 Min): 306555.97; Total (signal) ([2]; 47 Min): 291381.69; Total (signal) ([2]; 74 Min): 272408.13; Total (signal) ([2]; 192 Min): 154950.09; Total (signal) ([2]; 278 Min): 102698.54; Total (signal) ([2]; 1439 Min): 2336.87; Clearance in vivo ([2]; nude mice, imaged over 24 h): good clearance

Second part, led by results:

Row | λMeOH ([1]; Table 5) [nm] | λMeOH ([1]; Table 2) [nm] | Compound | other results
15 |  | 785 | CC1(C)C(/C=C/C2=C(c3c(F)cc(F)cc3F)C(=C/C=C3/N(CCCCS(=O)(=O)[O-])c4ccc(S(=O)(=O)[O-])cc4C3(C)C)/CCC2)=[N+](CCCCS(=O)(=O)[O-])c2ccc(S(=O)(=O)[O-])cc21.[Na+].[Na+].[Na+] [Compound 14] | 
16 |  | 782 | CC1(C)C(/C=C/C2=C(c3c(Cl)cccc3Cl)C(=C/C=C3/N(CCCS(=O)(=O)[O-])c4ccc(S(=O)(=O)[O-])cc4C3(C)C)/CC(C(=O)O)C2)=[N+](CCCS(=O)(=O)[O-])c2ccc(S(=O)(=O)[O-])cc21.[Na+].[Na+].[Na+] (stereo not shown) [Compound 15] | 
17 |  | 783 | COc1cc(F)c(C2=C(/C=C/C3=[N+](CCCCS(=O)(=O)[O-])c4ccc(S(=O)(=O)[O-])cc4C3(C)C)CCC/C2=C\C=C2\N(CCCCS(=O)(=O)[O-])c3ccc(S(=O)(=O)[O-])cc3C2(C)C)c(F)c1.[Na+].[Na+].[Na+] [Compound 21] | 
18 |  | 783 | CCCCOc1ccc(F)c(C2=C(/C=C/C3=[N+](CCCCS(=O)(=O)[O-])c4ccc(S(=O)(=O)[O-])cc4C3(C)C)CCC/C2=C\C=C2\N(CCCCS(=O)(=O)[O-])c3ccc(S(=O)(=O)[O-])cc3C2(C)C)c1F.[Na+].[Na+].[Na+] [Compound 22] | 
19 |  | 789 | CCCCOc1c(F)cc(F)c(C2=C(/C=C/C3=[N+](CCCCS(=O)(=O)[O-])c4ccc(S(=O)(=O)[O-])cc4C3(C)C)CCC/C2=C\C=C2\N(CCCCS(=O)(=O)[O-])c3ccc(S(=O)(=O)[O-])cc3C2(C)C)c1F.[Na+].[Na+].[Na+] [Compound 23] | 
20 |  | 782 | CC1(C)C(/C=C/C2=C(c3c(F)cc(C(=O)O)cc3F)C(=C/C=C3/N(CCCCS(=O)(=O)[O-])c4ccc(S(=O)(=O)[O-])cc4C3(C)C)/CCC2)=[N+](CCCCS(=O)(=O)[O-])c2ccc(S(=O)(=O)[O-])cc21.[Na+].[Na+].[Na+] [Compound 26] | 
21 |  | 770 | CC1(C)C(/C=C/C2=C(c3cccc(F)c3F)C(=C/C=C3/N(CCCCS(=O)(=O)[O-])c4ccc(S(=O)(=O)[O-])cc4C3(C)C)/CC(C(=O)O)C2)=[N+](CCCCS(=O)(=O)[O-])c2ccc(S(=O)(=O)[O-])cc21.[Na+].[Na+].[Na+] (stereo not shown) [Compound 63a] | 
22 |  | 772 | CC1(C)C(/C=C/C2=C(c3ccc(C(=O)O)c(F)c3F)C(=C/C=C3/N(CCCCS(=O)(=O)[O-])c4ccc(S(=O)(=O)[O-])cc4C3(C)C)/CCC2)=[N+](CCCCS(=O)(=O)[O-])c2ccc(S(=O)(=O)[O-])cc21.[Na+].[Na+].[Na+] [Compound 64] | 
23 |  | 776 | CC1(C)C(/C=C/C2=C(c3ccc(CCC(=O)O)c(F)c3F)C(=C/C=C3/N(CCCCS(=O)(=O)[O-])c4ccc(S(=O)(=O)[O-])cc4C3(C)C)/CCC2)=[N+](CCCCS(=O)(=O)[O-])c2ccc(S(=O)(=O)[O-])cc21.[Na+].[Na+].[Na+] [Compound 65] | 
24 |  | 773 | CC1(C)C(/C=C/C2=C(c3ccc(C(=O)NCCCCCC(=O)O)c(F)c3F)C(=C/C=C3/N(CCCCS(=O)(=O)[O-])c4ccc(S(=O)(=O)[O-])cc4C3(C)C)/CCC2)=[N+](CCCCS(=O)(=O)[O-])c2ccc(S(=O)(=O)[O-])cc21.[Na+].[Na+].[Na+] [Compound 66] | 
